Fold change (FC) data for 1 compound are collected here from ChEMBL document CHEMBL2203188, “Preparation of N-(Hetero)cyclyl Benzamides as Inhibitors of the Activity of Complex III of the Mitochondrial Electron Transport Chain: Patent Highlight” (ACS Med Chem Lett, 2012).

The nature of the test: Inhibition of electron transport protein complex 3 in glioma initiating cells assessed as increase in cell death at 50 uM after 48 hrs relative to control. The format is cell-based.

`O=CNc1cccc(C(=O)NC2CCCCCCCC2)c1O`: the fold change (FC) was over 1.2.
